Literature values, collected in patent publication US20120108678A1, “BRANCHED COPOLYMERS, COMPOSITIONS AND USES” (UNILEVER PLC, priority 2009, published 2012).

Compound: C=CC(=O)OCC(C)O (centres unmarked) [2-Hydroxypropyl acrylate]
- Solubility in water w/w at 20° C.: Soluble

Compound: C=C(C)C(=O)O [Methacrylic acid]
- Solubility in water w/w at 20° C.: Soluble

Compound: C=CC(=O)OCCO [2-Hydroxyethyl acrylate]
- Solubility in water w/w at 20° C.: soluble

Compound: C=C(C)C(=O)OCCO [2-Hydroxyethyl methacrylate]
- Solubility in water w/w at 20° C.: 3.00 w/w

Compound: C=Cc1ccccc1 [styrene]
- water solubility (water-insoluble monomer examples): 0.02 % w/w
